Source: patent US20220257595A1, “MACITENTAN FOR USE IN TREATING PORTOPULMONARY HYPERTENSION” (ACTELION PHARMACEUTICALS LTD, priority 2019, published 2022)
“Also recorded” adds a separate entry of the source.

How the values were obtained:
patients with PoPH = test: PORTICO: right heart catheterization hemodynamics at rest (PVR, mRAP, mPAP, cardiac index, TPR, SVO2, PAWP/LVEDP); type: in vivo, human
Experimental: This study was designed as a randomized, double-blind (DB), placebo-controlled, prospective, multicenter, parallel group Phase 4 study assessing the efficacy and safety of macitentan in PoPH. The study design included an OL period following DB End of Treatment (EOT), the details of which are included below. The study design required approximately 84 adult patients with PoPH to be randomized (1:1) to receive either macitentan 10 mg, or matching placebo, once daily (o.d.) orally. Subject allocation to treatment groups was stratified by background PAH specific therapy receipt (yes/no). Stratification by region of enrollment was also performed as the number of enrolled patients per center was expected to be low, and variation in total patient numbers on a country-to-country level was expected. Based on an attrition rate of 10%, it was expected to have 76 evaluable patients at Week 12/End of Treatment (double-blind) (EOT-DB). Subjects were required to have a confirmed diagnosis of PoPH with a PVR of ≥4 Wood units (WU; ≥320 dyn·s·cm^−5) at enrollment but not have severe hepatic impairment (defined as Child-Pugh Class C or Model for End-Stage Liver Disease (MELD) score ≥19). Subjects were required to have 6-minute walk distance (6MWD) ≥50 m at enrollment but they could belong to any WHO FC. Patients were randomized at 36 sites in seven countries. The core study comprised the following periods:
The primary efficacy endpoint was: • Relative change from baseline to Week 12 in PVR, expressed as ratio of Week 12 to baseline PVR (Week 12 PVR divided by baseline PVR).
(i) Hemodynamic measurements—right heart catheterization: Invasive cardiac hemodynamic variables were measured according to the RHC guidelines at Baseline (Visit 1/Screening) and Week 12, or at permanent discontinuation of DB study treatment if prior to Week 12 (at the investigator's discretion). The thermodilution technique was used to measure cardiac output (CO). For each patient, a maximum of two RHC procedures were performed during the study. The following variables were measured: Heart rate (HR), PAWP or LVEDP (if PAWP is not available), mRAP, systolic/diastolic/mean pulmonary arterial pressure (PAP), CO, SVO2. PVR was calculated at Visit 1/Screening. The following hemodynamic variables were calculated for analysis purposes: PVR, TPR, cardiac index.
The primary efficacy endpoint is: • Relative change from baseline to Week 12 in PVR, expressed as ratio of Week 12 to baseline PVR (Week 12 PVR divided by baseline PVR). • Calculated PVR was used for the efficacy analyses.
The primary analysis was performed on the FAS and using calculated PVR. PVR was summarized by time point and treatment group using descriptive statistics. Ratio of Week 12 to baseline was summarized using geometric means and coefficients of variation (CVs). The ratio of Week 12 to baseline PVR was log-transformed (base e) and analyzed using ANCOVA with factors for treatment group (macitentan versus placebo), background PAH-specific therapy at baseline (Yes/No as per IXRS, randomization stratification factor), region (Europe/North America/Latin America as per IXRS, randomization stratification factor) and a covariate for baseline log-transformed PVR. The treatment group difference (on log scale) and its 95% confidence interval (2-sided) were estimated based on the model. The geometric mean ratio (macitentan versus placebo) and its 95% confidence interval (2-sided) were obtained by exponentiation. […] The log transformation for PVR is justified by the fact that ratios versus baseline follow a normal distribution more closely after a log transformation. In addition, mean absolute changes from baseline on log scale can be translated into (geometric) mean ratios by exponentiation.
A sensitivity analysis was performed applying main ANCOVA analysis without the stratification factors (background PAH-specific therapy at baseline and region). […]

[1] = prior nonclinical and clinical studies; cited from earlier work
[2] = 10 mg o.d. oral, DB period, FAS with imputation, n=43
[3] = 10 mg o.d., FAS with imputation, n=43
[4] = Week 12 vs baseline, macitentan group
[5] = change to Week 12, ANCOVA, FAS, listed as Macitentan
[6] = patients receiving macitentan, FAS no imputation

CCCNS(=O)(=O)Nc1ncnc(OCCOc2ncc(Br)cn2)c1-c1ccc(Br)cc1 [macitentan, N-[5-(4-Bromophenyl)-6-[2-[(5-bromo-2-pyrimidinyl)oxy]ethoxy]-4-pyrimidinyl]-N′-propylsulfamide]
PVR at Week 12, mean (patients with PoPH; [2]): 350.3 dyn.sec/cm^5 | PVR at Week 12, median (patients with PoPH; [2]): 328.6 dyn.sec/cm^5 | Mean (±SD) decrease in PVR from baseline to Week 12 (patients with PoPH; 10 mg o.d., FAS): 202.1 (±123.56) dyn·sec/cm^5 | Change from baseline to Week 12 in PVR, mean (patients with PoPH; [3]): −202.1 dyn.sec/cm^5 | Change from baseline to Week 12 in PVR, median (patients with PoPH; [3]): −179.9 dyn.sec/cm^5 | Ratio of Week 12 to baseline PVR, geometric mean (95% CLs) (patients with PoPH; [3]): 0.63 (0.58, 0.67) | Ratio of baseline PVR at Week 12, median (patients with PoPH; [3]): 0.60 | Ratio of Week 12 to baseline PVR, geometric mean (95% CLs) (patients with PoPH; 10 mg o.d., FAS with imputation, n=43, listed as Macitentan): 0.63 | LS mean difference Macitentan 10 mg-Placebo, log(ratio of baseline PVR at Week 12) (patients with PoPH; ANCOVA, FAS): −0.43 | LS mean of log(ratio of baseline PVR at Week 12) (patients with PoPH; ANCOVA, FAS, macitentan group): −0.41 | Model-adjusted geometric mean of ratio of baseline PVR at Week 12 (patients with PoPH; ANCOVA, FAS, macitentan group): 0.67 | SVO2 at Week 12, mean (patients with PoPH; FAS with imputation, n=41): 70.3% | SVO2 change from baseline to Week 12, mean (patients with PoPH; FAS with imputation, n=41): 1.1% | mRAP at Week 12, mean (patients with PoPH; FAS with imputation, n=42): 9.0 mmHg | mRAP change from baseline to Week 12, mean (patients with PoPH; FAS with imputation, n=42): 1.6 mmHg | Cardiac index at Week 12, mean (patients with PoPH; FAS with imputation, n=43): 3.7 L/min/m^2 | Cardiac index change from baseline to Week 12, mean (patients with PoPH; FAS with imputation, n=43): 0.6 L/min/m^2 | TPR at Week 12, mean (patients with PoPH; FAS with imputation, n=43): 489.4 dyn · sec/cm^5 | TPR change from baseline to Week 12, mean (patients with PoPH; FAS with imputation, n=43): −199.8 dyn · sec/cm^5 | mPAP Change from baseline to Week 12, Mean (patients with PoPH; FAS with imputation, n=43): −6.4 mmHg | mPAP at Week 12, mean (patients with PoPH; FAS with imputation, n=43): 40.0 mmHg | Effect on PVR across demographic and baseline disease subgroups (patients with PoPH; FAS, subgroup analyses, Week 12): consistent with the overall treatment effect, with no indication of heterogeneity | Geometric mean ratio of macitentan versus placebo (95% CLs), PVR, slope imputation (patients with PoPH; Week 12, ANCOVA, FAS N=85): 0.65 (0.59, 0.72), | Model-adjusted geometric mean ratio of PVR (macitentan over placebo), primary analysis (patients with PoPH; Week 12, ANCOVA, FAS N=85): 0.65 (0.59, 0.72), p < 0.0001 | Difference in LS means macitentan-placebo, change from baseline in PVR (no log-transformation) (patients with PoPH; Week 12, ANCOVA, FAS N=85 (Table 10)): −180.71 dyn.sec/cm^5 | Model-adjusted geometric mean ratio of PVR (macitentan over placebo), primary analysis (patients with PoPH; Week 12, ANCOVA, FAS N=85, listed as Macitentan): 0.65 | Treatment effect: geometric mean ratio of PVR ratio (macitentan vs placebo) (patients with PoPH; Week 12, FAS with imputation, descriptive (Table 8)): 0.64 | LS Mean difference (macitentan-placebo), ANCOVA (Absolute Change) of PVR (patients with PoPH; Week 12, N=85 (Table 12)): −180.71 meters | Reduction in PVR vs placebo (patients with PoPH; Week 12, from adjusted geometric mean ratio): 35% | Patients with an increase in PVR (patients with PoPH; [4]): 1 patient | Patients with no change in PVR (patients with PoPH; [4]): 1 patient | SVO2: difference in LS means macitentan-placebo (patients with PoPH; change to Week 12, ANCOVA, FAS): No clinically significant effect; also recorded: No clinically relevant effect | mRAP: difference in LS means macitentan-placebo (patients with PoPH; change to Week 12, ANCOVA, FAS): No clinically significant effect; also recorded: No clinically relevant effect | Cardiac index: difference in LS means macitentan-placebo (patients with PoPH; [5]): 0.52 L/min/m^2 | SVO2: difference in LS means macitentan-placebo (patients with PoPH; [5]): 0.03% | TPR: difference in LS means macitentan-placebo (patients with PoPH; [5]): −171.48 dyn · sec/cm^5 | mPAP: difference in LS means macitentan-placebo (patients with PoPH; [5]): −5.99 mmHg | mRAP: difference in LS means macitentan-placebo (patients with PoPH; [5]): 1.67 mmHg | PAWP/LVEDP treatment difference based on change from baseline to Week 12 (patients with PoPH; macitentan vs placebo): 2.4 mmHg | Mean PAWP/LVEDP (SD) at Week 12 (patients with PoPH; [6]): 11.4 (4.2) mmHg | PAWP/LVEDP mean (SD) change from baseline at Week 12 (patients with PoPH; [6]): 2.1 (3.7) mmHg | Toxicities associated with macitentan treatment [1]: associated with teratogenicity, dose-related anemia/decrease in hemoglobin concentration, and hepatotoxicity
